pEC50: −log10 of the molar value. Where “and” joins values, the source holds several entries; their conditions need not be identical. Equal values may be shown once. Read-outs that look alike come from different tables or passages of the source.
Columns and labels:
Rab7 wt [1] = assay: Nucleotide dissociation assay under equilibrium conditions; details: CID1067700 10 μM, compared with unlabeled GDP 10 μM
Method: This low level bead associated fluorescence was subtracted from specific binding to obtain accurate measurement of the off rates. Data normalization was performed by subtracting dilution only values from competitor treated experimental values.
The experiment was carried out by pre-binding BODIPY-GTP or BODIPY-GDP to GST-tagged Rab7 protein to equilibrium and then assaying for the loss of fluorescence over time occasioned by the release of bound nucleotide (FIG. 31A-D). […] Dissociation rate constants were calculated from data fit to exponential functions using Prism software.

[2] = Solubility in PBS and assay media, UV absorbance detection; format: physicochemical; details: read-out: Solubility
Method: Solubility was measured in phosphate buffered saline (PBS) at room temperature (23° C.). PBS by definition is 137 mM NaCl, 2.7 mM KCl, 10 mM sodium phosphate dibasic, 2 mM potassium phosphate monobasic and a pH of 7.4. Detection was based on UV absorbance. […]. Solubility was also assessed in the each of the four media used in the individual assays. […]

U937 cells = assay: Cytotoxicity of compounds, cell density and viability; format: cell-based
Method: U937 cells were grown to a density of 0.4×10^6 cells/mL Compounds were added to a final concentration of 20 μM or otherwise indicated. As a control, cells were treated with DMSO of the same volume. After 24 h incubation, the density and viability of the cells were measured with Countess Cell Counter according to the protocols from the manufacturer.

Rab7 wt [3] = assay: Equilibrium binding with varying fluorescent nucleotide at fixed CID1067700 concentration
Method: Dose response assays were conducted in two different modes. […].
[…]. […] […].

[4] = system: EGFR degradation in SCC-12F cells; assay: EGFR degradation in SCC-12F cells; format: cell-based; details: human keratinocytes (SCC-12F), 10-100 μM
Method: SCC-12F cells were seeded in 12-well plates at 0.12×10^6 cells/well and allowed to grow overnight. On the day of the experiment, the cells were starved in serum free medium containing 25 μg/mL cycloheximide for 2 h before compounds at different concentrations were added. The cells were treated for 30 min. Then, ligand EGF was added to 20 nM. At time points of 0, 15, 30, 60, and 120 min after the EGF addition, the suspension medium was removed and the cell was quickly washed with cold PBS and frozen at −80° C. For electrophoresis and blotting, CelLytic™M Cell Lysis buffer containing protease inhibitor cocktails was added to the frozen cells to obtain the cell lysates according to the protocols from the manufacture. Protein concentration was quantified using BCA assay kit. For SDS-PAGE, 10 μg protein was loaded to each lane and proteins transferred to nitrocellulose. The nitrocellulose membranes were probed with antibodies directed against EGFR or actin and detected using peroxidase conjugated secondary antibodies and SuperSignal West Dura. Signal intensities were measured and quantified using a ChemiDoc™ XRS+ molecular imager coupled with Image Lab software.

[5] = system: EGFR degradation in HeLa-Rab7 wt cells; assay: EGFR degradation in Rab7 overexpressing HeLa cells; format: cell-based, human; details: 100 μM
Method: EGFR degradation was also monitored in HeLa cells with some minor modifications. […] Cell lysates were prepared at various time points and immunoblotted for total EGFR while actin served as a loading control.

[6] = system: Ras-related GTPases (Cdc42 wt, Rac1wt, Rac1Q61L, Rab2 wt, Rab7 wt, and H-Ras wt); details: secondary multiplex dose response
Method: The eight GTPases were grouped into two sets: Rab7, H-Ras wild type and its V12 mutant, and Cdc42 and its L61 mutant were assayed in a buffer containing 1 mM EDTA, while Rho, Rac1 and its L61 mutant, and Cdc42 and its L61 mutant were assayed in the same buffer but instead containing 1 mM Mg^2+ with Cdc42 and its mutant being tested in both buffers. Besides 1 mM EDTA or 1 mM Mg^2+, the buffer contained 30 mM HEPES, pH 7.5, 40 mM KCl, 100 mM NaCl, 0.1% (v/v) NP-40 and 1% BSA. For each multiplex reaction, an extra set of beads was included to serve as scavengers to bind any proteins that dissociate from their assigned bead set and thereby reduce interference due to protein dissociation during the assay. […] Briefly, each individual GST-tagged enzyme was incubated with 4 μm glutathione-coated microsphere beads overnight with gentle rotation. The microsphere beads have different red fluorescence dyes incorporated and therefore could be separated by a flow cytometer. The unbound enzyme was removed by sufficient washing with the buffer. The bead sets were then combined and dispensed to 384-well plates at 5 μL/well. For one plate, 0.5 μg each of the enzymes and 4.0×10^4 of each bead were used. Then 100 nL compound was added using Biomek FX followed by the addition of 5 μL/well of BODIPY-FL-GTP (ribose-linked BODIPY). […] The beads were aspirated and delivered with the HyperCyt® instrument and read on CyAnADP flow cytometer. Forward scatter and side scatter was used to define the whole bead population. […] The data was analyzed by the HyperView® software developed by Dr. Bruce Edward at the University of New Mexico.
Briefly, six sets of beads (each with a unique red fluorescence intensity) were individually coated with six representative GST-tagged Ras-related GTPases (Cdc42 wt, Rac1wt, Rac1Q61L, Rab2 wt, Rab7 wt, and H-Ras wt) (FIG. 29A). The individually conjugated beads were then assayed in the presence of individual compounds in the Molecular Libraries Small Molecule Repository using a HyperCyt flow cytometry to identify molecules that altered the binding of fluorescent nucleotide to Ras-family GTPases (36).

VLA-4 integrin = assay: LDV binding assay in U937 ΔST cells; format: cell-based; details: FITC-LDV 4 nM, after N-formyl peptide stimulation
Method: The procedure followed the established protocols described previously. U937 ΔST cells (0.4−0.8×10^6 cells/mL) were constantly stirred with a magnetic stir bar at 500 rpm in a test tube. The fluorescence was recorded on a FACScan flow cytometer. The base line fluorescence of the cells was established for 30s. FITC-LDV at a concentration of 4 nM was then added. After the fluorescence stabilized at around 120s, the chemotactic ligand N-formyl peptide was added for stimulation resulting activation of VLA-4 integrin and additional FITC-LDV binding. […] Fluorescence was continually recorded until no further change was observed. The inhibition percentage was calculated according to Equation 1.

[7] = Chemical stability towards L-glutathione in DMSO, LCMS; format: physicochemical; details: 1.2-3.0 eq L-glutathione in DMSO, 37° C., up to 72 h
Method: The three experiments were monitored by LCMS at each of the following time points: 1 h, 2 h, 4 h, 24 h, 48 h, and 72 h. Procedure: […]

[8] = Stability in PBS at room temperature; format: physicochemical; details: 23° C., after 48 hours, no antioxidants, DMSO below 0.1%
Method: Stability, depicted as closed circles in the graph, was assessed at room temperature (23° C.) in PBS (no antioxidants or other protectants and DMSO concentration below 0.1%). Stability data is depicted as a graph showing the loss of compound with time over a 48 hr period with a minimum of 6 time points and providing the percent remaining compound at end of the 48 hr period.

## CC1(C)Cc2c(sc(NC(=S)NC(=O)c3ccccc3)c2C(=O)O)CO1 [CID1067700, 2-(3-benzoylthioureido)-5,5-dimethyl-5,7-dihydro-4H-thieno[2,3-c]pyran-3-carboxylic acid]
Rab7 wt [1]
  Effect on rate of release of bound BODIPY-GTP or BODIPY-GDP: no effect
[2]; Dose Response-EDTA buffer, pH 7.5, aqueous with cosolvent or surfactant or cyclodextrin, Dose Response-EDTA buffer: 30 mM HEPES, pH 7.5, 100 mM KCl, 20 mM NaCl, 0.01% NP-40, 1 mM EDTA
  solubility: 69.7 µg/mL
[2]; Dose Response-EDTA buffer, pH 7.5, aqueous with cosolvent or surfactant or cyclodextrin, Dose Response-EDTA buffer
  solubility: 178 µM
[2]; Dose Response-Mg buffer, pH 7.5, aqueous with cosolvent or surfactant or cyclodextrin, Dose Response-Mg buffer: 30 mM HEPES, pH 7.5, 100 mM KCl, 20 mM NaCl, 0.01% NP-40, 1 mM MgCl2
  solubility: 68.1 µg/mL
[2]; Dose Response-Mg buffer, pH 7.5, aqueous with cosolvent or surfactant or cyclodextrin, Dose Response-Mg buffer
  solubility: 174 µM
[2]; phosphate buffered saline (PBS), 23 °C, pH 7.4, aqueous buffer, 1 × PBS, pH 7.4, room temperature (23° C.)
  solubility: > 116 µg/mL and > 297 µM
U937 cells; 24 h, 20 μM
  Cell viability of U937 cells after treatment: 94%
U937 cells; 24 h in growth medium
  Cytotoxicity in U937 cells: no obvious cytotoxicity
Rab7 wt [3]
  Increase of Ki (Cheng Prusoff) between inhibition of BODIPY-GTP and BODIPY-GDP: 2 fold
Rab7 wt [3]; CID1067700 100 nM
  Effect on Rab7 wt Bmax for BODIPY-GTP: does not alter
Rab7 wt [3]; CID1067700 200 nM
  Effect on Rab7 wt Bmax for BODIPY-GDP: does not alter
Rab7 wt [3]; CID1067700 fixed at 100-200 nM
  Increase in observed EC50 for both nucleotides in the presence of CID1067700: ≤ 3 fold
[4]
  Growth factor receptor (EGFR) degradation: decreased
[5]
  Growth factor receptor (EGFR) degradation: decreased
[6]; read-out: EC50 against all tested GTPases, fluorescent GTP
  pEC50: 6.30 to 7.70
[6]
  Inhibition against all tested GTPases: at least 40%
VLA-4 integrin
  VLA4 binding with LDV peptide: inhibits
[7]
  Glutathione conjugate formation by LCMS: did not result in LCMS detection of any conjugates or other product peaks
[7]; listed as SID 85747738
  Glutathione conjugate formation by LCMS: No glutathione conjugate or other peaks were observed
[8]
  Percent remaining compound: 77%

Source: patent US8765803B1, “Rab7 GTPase inhibitors and related methods of treatment” (STC.UNM, priority 2011, dated 2014)
